Data as given in US20220313733A1, “METHOD FOR PRODUCING RENAL INTERSTITIAL CELL” (Kyoto University, priority 2019, published 2022).

Tests used:
Assay type in all cases: cell-based, human
hNCCs = test: Hypoxic response of posteriorly shifted NCCs (hNCCs): EPO secreted into the medium; settings: hNCCs on Day 18, 100 μM, 1 day after addition
Protocol: EPO-producing cells are known to perform the production and secretion of EPO in response to HIF signals in a hypoxic environment. The hypoxic response of the hNCCs on Day 18 prepared in Example 1-3 was confirmed using two types of compounds that activated HIF signals (FG-2216: Selleck Chemicals #18382 and FG-4592: Selleck Chemicals #S1007, 100 μM each). Results of quantifying the amount of EPO secreted into the medium on 1 day after addition of FG-2216 or FG-4592 are shown in FIG. 3. The secretion of EPO into the medium was increased in response to hypoxic stimulation.

RSCs [1] = test: Hypoxia-responsive ability of RSCs to produce EPO (mRNA, immunostaining); settings: 100 μM
Protocol: The RSPs obtained in Example 2 were inoculated at 2×10^3 cells/well to a 6-well plate coated with fibronectin, and cultured for 15 days in STEMdiff APEL2 medium (STEMCELL Technologies Inc., ST-05275) to obtain RSCs (Days 55 to 70). The hypoxia-responsive ability to produce EPO was confirmed as to the obtained RSCs. EPO-producing cells are known to perform the production and secretion of EPO in response to HIF signals in a hypoxic environment. The RSCs were treated with a compound that activated HIF signals (FG-4592, Selleck Chemicals, #S1007, 100 μM).

[2] = test system: kidney organoid (Mini-kidney); test: Renal stromal cell marker mRNA expression in Mini-kidney under hypoxic stimulation; settings: Mini-kidney IM+RSP (D25), 100 μM
Excerpt: The mRNA expression levels of renal stromal cell markers (desmin, vimentin, PDGFRβ and CD73) were quantified by the sequencing analysis of the libraries for transcriptomes prepared in Example 4-4. The expression of all the renal stromal cell markers was confirmed in the Mini-kidney (IM+RSP (D25)). As a result of confirming the hypoxic response of the Mini-kidney (IM+RSP (D25)) in the same manner as in Example 1-4, the expression levels of desmin and CD73 were decreased by hypoxic stimulation (100 μM FG-4592) (IM+RSP (D25)+FG4592).

[3] = test system: kidney organoid (Mini-kidney); test: EPO mRNA expression in kidney organoid (Mini-kidney) under hypoxic stimulation; settings: Mini-kidney IM+RSP (D25), 100 μM
Protocol: RNA was extracted from the kidney organoid on Day 25 from the start of coculture (Mini-kidney, IM+RSP (D25)) obtained in Example 4-3 and a kidney organoid containing no RSP (KiO (D25)), and libraries for transcriptome analysis were prepared using Ion AmpliSeq™ Transcriptome Human Gene Expression Kit (Thermo Fisher Scientific, Inc.: #A26326). The prepared libraries were subjected to sequencing analysis (Ion S5 XL sequencer, Thermo Fisher Scientific, Inc.) using Ion 54™ Chip Kit (Thermo Fisher Scientific, Inc., #A27765) to quantify the expression level of EPO mRNA. The significant expression of EPO mRNA was not seen in any of an iPS cell line, IM, and the kidney organoid containing no RSP (KiO (D25)). By contrast, the significant expression of EPO mRNA was confirmed in the Mini-kidney (IM+RSP (D25)). As a result of confirming the hypoxic response of the Mini-kidney in the same manner as in Example 1-4, the EPO expression level was increased by hypoxic stimulation (100 μM FG-4592) (IM+RSP (D25) +FG4592).

RSCs [4] = test: Evaluation of TGFβ1 response of RSCs (fibrosis, area of tdTomato-positive cells, αSMA)
Protocol: In vivo renal stromal cells are known to cause differentiation into αSMA-positive myofibroblasts and hypertrophy (so-called fibrosis) in response to TGFβ1 stimulation. RSCs were obtained by the methods described in Examples 1, 2 and 3-1 from the EPO-emGFP/GAPDH-tdTomato (GAPDH-tdT) dual knock-in human iPS cell line obtained in Example 4-2 mentioned later. In the method described in Example 1, the RA concentration was set to 3 μM. RSCs on day 4 of culture (D4) were treated with TGFβ1 (0.01 to 10 ng/ml) for 9 days (D13), and the degree of fibrosis was evaluated by determining the ratio of tdTomato-positive cells using image analysis software Image J (NIH). Specifically, a fluorescently taken image was converted to 8 bits for binarization, and the whole area was divided into “area of cells” and “other areas (areas containing no cell)”. The proportion was calculated according to the expression “Area of cells”/“Whole area”.

RSCs [5] = test: Screening system for a compound that improves a sustained fibrotic state (area of tdTomato-positive cells); settings: 3, 10 or 30 μM added on D15, cultured to D24, after 10 ng/ml TGFβ1 D4 to D13
Protocol: In FIG. 15, RSCs on day 4 of culture (D4) were treated with TGFβ1 (10 ng/ml) for 9 days (D13) and then further cultured in a TGFβ1-free medium (D15) for 2 days. SB431542 (3, 10 or 30 μM) was added to the medium of the cells on D15, and the cells were further cultured for 9 days (D24). […] “Cont” depicts a negative control (without SB addition).
RSPs were inoculated at 3000 cells/well to a 384-well plate, and the induction of RSCs was started in STEMdiff APEL2 medium (STEMCELL Technologies Inc., ST-05275). On day 4 of culture (D4), fibrosis was induced by the addition of 10 ng/ml TGFβ1. During the culture period, the culture solution containing TGFβ1 was replaced with a fresh one every 3 days. On day 13 of culture (D13), TGFβ1 was removed from the medium, and culture was further continued for 2 days (D15). The TGF receptor inhibitor SB431542 (SB) was added as a test substance to the medium of the cells on D15, and the cells were further cultured for 9 days (D24). Then, the area of tdTomato-positive cells was determined.

RSCs [6] = test: Fibrotic state of RSCs after removal of TGFβ1 from the medium
Protocol: In FIG. 13, RSCs on day 4 of culture (D4) were treated with TGFβ1 (1 ng/ml) for 9 days (D13 TGF) and then further cultured in a TGFβ1-containing medium (D25 TGF+) or a TGFβ1-free medium (D25 TGF−) for 12 days. […] “D25 Cont” depicts a negative control (without TGFβ1 treatment).
In FIG. 14, RSCs on day 4 of culture (D4) were treated with TGFβ1 (10 ng/ml) for 9 days (D13 TGF) and then further cultured in a TGFβ1-containing medium (D25 TGF+) or a TGFβ1-free medium (D25 TGF−) for 12 days. […] “D25 Cont” depicts a negative control (without TGFβ1 treatment).
By exploiting this property of fibrosis of RSCs, a screening system for a compound that improved a sustained fibrotic state was constructed.

fibronectin (FN1) = test: Biomarker search: LC/MS analysis of culture supernatant of RSCs with induced fibrosis; settings: 10 ng/ml TGFβ1 for 9 days
Protocol: RSPs were inoculated at 2×10^6 cells/dish to a 10 cm dish, and the induction of RSCs was started in STEMdiff APEL2 medium (STEMCELL Technologies Inc., ST-05275). On day 7 of culture (D7), 10 ng/ml TGFβ1 was added thereto, and the cells were further cultured for 9 days to induce fibrosis.
The culture supernatant was recovered. After removal of albumin, IgG and IgA, a peptide fragment was obtained by acetone precipitation and trypsin digestion. The amino acid sequence of the peptide fragment was determined by LC/MS analysis.

RSPs = test: Influence of bFGF, FGF9 and PDGF-BB on differentiation of RSPs into RSCs (number of cells, EPO ELISA)
Protocol: The RSPs obtained in Example 2 were inoculated at 2×10^3 cells/well to a 6-well plate coated with fibronectin, and cultured for 15 days in STEMdiff APEL2 medium (STEMCELL Technologies Inc., ST-05275) to obtain RSCs (Days 55 to 70).
The number of cells and the amount of EPO secreted into the medium which were obtained by adding 40 ng/ml bFGF, 200 ng/ml FGF9 (FUJIFILM Wako Pure Chemical Corp., #AF-100-23), and 10 ng/ml PDGF-BB (PeproTech, Inc., #100-14B) each alone or in combination to a medium were measured under the induction conditions of Example 3-1. EPO in the medium was measured by ELISA.

Molecule: O=C(O)CNC(=O)c1nc(Cl)c2ccccc2c1O [FG-2216]
- secretion of EPO into the medium (hNCCs): increased

Molecule: Cc1nc(C(=O)NCC(=O)O)c(O)c2ccc(Oc3ccccc3)cc12 [FG-4592]
- expression of EPO in response to hypoxic stimulation (RSCs [1]): found at the mRNA level and the protein level
- secretion of EPO into the medium (hNCCs): increased
- expression level of CD73 [2]: decreased
- expression level of desmin [2]: decreased
- EPO expression level [3]: increased

Molecule: NC(=O)c1ccc(-c2nc(-c3ccc4c(c3)OCO4)c(-c3ccccn3)[nH]2)cc1 [SB431542, 4-[4-(1,3-benzodioxol-5-yl)-5-(2-pyridinyl)-1H-imidazol-2-yl]-benzamide]
- cellular hypertrophy caused by TGFβ1 (RSCs [4]; cotreatment with TGF receptor inhibitor): suppressed
- fibrosis (area of tdTomato-positive cells) (RSCs [5]): marked suppression of fibrosis

Molecule: TGFβ1: isoform of transforming growth factor β, fibrosis-inducing substance
- fibrotic state after removing TGFβ1 from the medium (RSCs [6]; fibrosis induced by 1 ng/ml TGFβ1): restored to non-fibrotic RSCs
- fibrotic state after removal of TGFβ1 from the medium (RSCs [6]; fibrosis induced by 10 ng/ml TGFβ1): maintained the fibrotic state
- cellular hypertrophy, concentration dependence (RSCs [4]; TGFβ1 0.01 to 10 ng/ml for 9 days): caused in a TGFβ1 concentration-dependent manner
- differentiation into αSMA-positive myofibroblasts and cellular hypertrophy (RSCs [4]; TGFβ1 0.01 to 10 ng/ml for 9 days (D4 to D13)): found
- FN1 detected in culture supernatant of treated cells as compared with untreated cells (fibronectin (FN1)): about 10 times

Molecule: bFGF: basic fibroblast growth factor (FUJIFILM Wako Pure Chemical Corp.)
- proliferation of the cells (RSPs; 40 ng/ml bFGF added to STEMdiff APEL2 medium): promoted

B1: PDGF-BB: platelet derived growth factor B chain homodimer (PeproTech, Inc., #100-14B) (protein, UniProt P01127 82-190, looked up)
Platelet-derived growth …: SLGSLTIAEPAMIAECKTRTEVFEISRRLIDRTNANFLVWPPCVEVQRCSGCCNNRNVQCRPTQVQLRPVQVRKIEIVRKKPIFKKATVTLEDHLACKCETVAAARPVT
- amount of EPO secreted (RSPs; 10 ng/ml PDGF-BB added to STEMdiff APEL2 medium): increased
